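Step 1: Grow cells in 96-well plates. Step 2: Expose to compound for 48 hours at 5 concentrations. Step 3: Interpolate endpoints linearly; if unreached, use highest concentration. GI50 = concentration required for 50% inhibition of growth.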 The source made the active and inactive calls. Rule as the data show it: active = GI50 up to about 1.1 µM and inactive = higher.
What was measured:
Assay in all cases: DTP human tumour cell line panel, 48 h
BT-549 = tested on: BT-549
LOX IMVI = tested on: LOX IMVI
SR = tested on: SR
UACC-257 = tested on: UACC-257
PC-3 = tested on: PC-3
SF-539 = tested on: SF-539
HCT-116 = tested on: HCT-116
SNB-75 = tested on: SNB-75
786-0 = tested on: 786-0
MCF7 = tested on: MCF7
OVCAR-3 = tested on: OVCAR-3
DU-145 = tested on: DU-145
IGROV-1 = tested on: IGROV-1
NCI-H460 = tested on: NCI-H460
HL-60 = tested on: HL-60
MDA-N = tested on: MDA-N
K562 = tested on: K562
Hs-578T = tested on: Hs-578T
HCT-15 = tested on: HCT-15
KM12 = tested on: KM12

SMILES | GI50 (BT-549) | GI50 (LOX IMVI) | GI50 (SR) | GI50 (UACC-257) | GI50 (PC-3) | GI50 (SF-539) | GI50 (HCT-116) | GI50 (SNB-75) | GI50 (786-0) | GI50 (MCF7) | GI50 (OVCAR-3) | GI50 (DU-145) | GI50 (IGROV-1) | GI50 (NCI-H460) | GI50 (HL-60) | GI50 (MDA-N) | GI50 (K562) | GI50 (Hs-578T) | GI50 (HCT-15) [µM] | GI50 (KM12)
CC(=O)C(=Cc1ccc(C=C(C(C)=O)C(C)=O)cc1)C(C)=O | 2.05 µM (inactive) | 0.57 µM (active) | 0.238 µM (active) | 1.92 µM (inactive) | 1.9 µM (inactive) | 2.1 µM (inactive) | 0.637 µM (active) | 1.78 µM (inactive) | 2.17 µM (inactive) | 1.87 µM (inactive) | 2.01 µM (inactive) | 3.81 µM (inactive) | 2.02 µM (inactive) | 2.59 µM (inactive) | 0.31 µM (active) | 2.22 µM (inactive) | 0.286 µM (active) | 3.58 µM (inactive) | 0.977 | 0.12 µM (active)
OCCSCc1ccccc1 | > 100 µM (inactive) | > 100 µM (inactive) | > 100 µM (inactive) | > 100 µM (inactive) | > 100 µM (inactive) | > 100 µM (inactive) | > 100 µM (inactive) | > 100 µM (inactive) | > 100 µM (inactive) | > 100 µM (inactive) | > 100 µM (inactive) | > 100 µM (inactive) | > 100 µM (inactive) | > 100 µM (inactive) | > 100 µM (inactive) | > 100 µM (inactive) | > 100 µM (inactive) | > 100 µM (inactive) | > 100 | > 100 µM (inactive)
Cc1nc(N)nc(N)c1-c1ccc(Cl)c(Cl)c1 [METOPRINE] | 21 µM (inactive) | 0.054 µM (active) | 0.308 µM (active) | 3.85 µM (inactive) | 0.0785 µM (active) | 1.21 µM (inactive) | 0.0399 µM (active) | 11.5 µM (inactive) | 0.273 µM (active) | 0.826 µM (active) | 3.75 µM (inactive) | 1.72 µM (inactive) | 2.54 µM (inactive) | 0.0239 µM (active) | 0.13 µM (active) | 0.141 µM (active) | 0.0219 µM (active) | 4.72 µM (inactive) | 0.145 | 3.05 µM (inactive)
O=C(OCc1ccccc1)N1CCNCCN(C(=O)OCc2ccccc2)CCNCC1 | 45.6 µM (inactive) | 13.2 µM (inactive) | 86.1 µM (inactive) | 21.4 µM (inactive) | 25.9 µM (inactive) | 14.6 µM (inactive) | 16.2 µM (inactive) | 25.6 µM (inactive) | 18.3 µM (inactive) | 17.7 µM (inactive) | 35.4 µM (inactive) | 95.7 µM (inactive) | 32.2 µM (inactive) | 21.6 µM (inactive) | 24.3 µM (inactive) | 15.6 µM (inactive) | 25.5 µM (inactive) | 21.2 µM (inactive) | 32.5 | 26 µM (inactive)
S=C(N/N=C(/c1ccccc1)c1ccccn1)Nc1ccccc1Cl | 3.3 µM (inactive) | 0.0418 µM (active) | < 0.0189 µM (active) | < 0.01 µM (active) | < 0.01 µM (active) | 1.11 µM (active) | < 0.01 µM (active) | 6.64 µM (inactive) | < 0.018 µM (active) | < 0.01 µM (active) | < 0.0103 µM (active) | 2.31 µM (inactive) | < 0.0105 µM (active) | 0.101 µM (active) | < 0.0865 µM (active) | 0.43 µM (active) | < 0.215 µM (active) | 2.49 µM (inactive) | 0.0179 | 0.0649 µM (active)
C(=C\Nc1ccc(-c2ccccc2)cc1)/C=N/c1ccc(-c2ccccc2)cc1 | > 100 µM (inactive) | > 100 µM (inactive) | > 100 µM (inactive) | > 100 µM (inactive) | > 100 µM (inactive) | > 100 µM (inactive) | > 100 µM (inactive) | > 100 µM (inactive) | > 100 µM (inactive) | > 100 µM (inactive) | > 100 µM (inactive) | > 100 µM (inactive) | > 100 µM (inactive) | > 100 µM (inactive) | > 100 µM (inactive) | > 100 µM (inactive) | > 100 µM (inactive) | > 100 µM (inactive) | > 100 | > 100 µM (inactive)
O=c1ssc2c1Nc1c(ssc1=O)S2 | 25.3 µM (inactive) | 5.37 µM (inactive) | 1.96 µM (inactive) | 14.6 µM (inactive) | 12.6 µM (inactive) | 7.21 µM (inactive) | 15.4 µM (inactive) | 16.5 µM (inactive) | 3.87 µM (inactive) | 16.4 µM (inactive) | 17.4 µM (inactive) | 13.4 µM (inactive) | 13.2 µM (inactive) | 17.3 µM (inactive) | 4.48 µM (inactive) | 16.1 µM (inactive) | 8 µM (inactive) | 33.7 µM (inactive) | 11.4 | 14.4 µM (inactive)
C=C(C(=O)O[C@H]1C(=O)C2=C(C)CCC3C(=C)C(=O)O[C@@H]3C2[C@]1(C)O)C1CC[C@]2(C)CCCC(=C)[C@H]2C1 (some centres undefined) | 5.04 µM (inactive) | 3.18 µM (inactive) | 7.4 µM (inactive) | 4.25 µM (inactive) | 5.45 µM (inactive) | 4.1 µM (inactive) | 3.28 µM (inactive) | 0.327 µM (active) | 1.88 µM (inactive) | 3.32 µM (inactive) | 4.75 µM (inactive) | 4.72 µM (inactive) | 4.62 µM (inactive) | 3.16 µM (inactive) | 2 µM (inactive) | 2.71 µM (inactive) | 6.11 µM (inactive) | 4.61 µM (inactive) | 3.48 | 6.85 µM (inactive)
CC(C)OC(=S)Nc1ccc(Cl)c(/C=N/OC(C)(C)C)c1 | 18.5 µM (inactive) | 17.1 µM (inactive) | 20.4 µM (inactive) | 18.2 µM (inactive) | 20.1 µM (inactive) | 15.5 µM (inactive) | 15.4 µM (inactive) | 23.5 µM (inactive) | 16.7 µM (inactive) | 22.9 µM (inactive) | 18.5 µM (inactive) | 13 µM (inactive) | 17.5 µM (inactive) | 17.4 µM (inactive) | 16.4 µM (inactive) | 22.9 µM (inactive) | 20 µM (inactive) | 16.6 µM (inactive) | 16.6 | 12.5 µM (inactive)
COc1ccc(/C(=N/O)c2ccccc2-c2nc3ccccc3c(=O)n2-c2ccc(S(=O)(=O)Nc3ncccn3)cc2)cc1C | 17.6 µM (inactive) | > 10 µM (inactive) | 15.3 µM (inactive) | 17.1 µM (inactive) | 19.7 µM (inactive) | 13.2 µM (inactive) | 12.7 µM (inactive) | 14.2 µM (inactive) | > 10 µM (inactive) | 13.2 µM (inactive) | 15.8 µM (inactive) | 21.1 µM (inactive) | 17.8 µM (inactive) | 15.6 µM (inactive) | 11.8 µM (inactive) | 18.3 µM (inactive) | 12.2 µM (inactive) | 29.4 µM (inactive) | 14 | 18.1 µM (inactive)
CCOC(=O)NC(OCCN(C)C)(C(F)(F)F)C(F)(F)F | > 100 µM (inactive) | > 100 µM (inactive) | > 100 µM (inactive) | > 100 µM (inactive) | > 100 µM (inactive) | > 100 µM (inactive) | > 100 µM (inactive) | > 100 µM (inactive) | > 100 µM (inactive) | > 100 µM (inactive) | > 100 µM (inactive) | > 100 µM (inactive) | > 100 µM (inactive) | > 100 µM (inactive) | > 100 µM (inactive) | > 100 µM (inactive) | > 100 µM (inactive) | > 100 µM (inactive) | > 100 | > 100 µM (inactive)
COCOC1/C=C/CCCCC(=O)C(C)C#CC1 (centres undefined) | 6.97 µM (inactive) | 2.19 µM (inactive) | 2.74 µM (inactive) | 5.65 µM (inactive) | 11.4 µM (inactive) | 5.7 µM (inactive) | 1.86 µM (inactive) | 12.9 µM (inactive) | 2.09 µM (inactive) | 3.89 µM (inactive) | 4.13 µM (inactive) | 12.8 µM (inactive) | 3.65 µM (inactive) | 7.13 µM (inactive) | 1.71 µM (inactive) | 11.5 µM (inactive) | 2.97 µM (inactive) | 20.3 µM (inactive) | 2.36 | 7.4 µM (inactive)
C=CCN1C(=O)/C(=C/c2ccc(OC)cc2)N=C1SC/C=C/C | 39.7 µM (inactive) | 31.6 µM (inactive) | 17.3 µM (inactive) | 36.7 µM (inactive) | 30.4 µM (inactive) | > 100 µM (inactive) | 25.4 µM (inactive) | 31.2 µM (inactive) | 34.7 µM (inactive) | 32.1 µM (inactive) | 74.1 µM (inactive) | 80 µM (inactive) | > 100 µM (inactive) | 61.9 µM (inactive) | 20 µM (inactive) | 26.7 µM (inactive) | 42.5 µM (inactive) | 50.1 µM (inactive) | 24.2 | 28.8 µM (inactive)
COc1ccc([C@H](NC(=O)c2ccccc2)[C@@H](O)C(=O)O[C@H]2C[C@@]3(O)C(OC(=O)c4ccccc4)C4[C@](C)(C(=O)[C@H](OC(C)=O)C(=C2C)C3(C)C)[C@@H](O)C[C@H]2OC[C@@]42OC(C)=O)cc1 (some centres undefined) | 0.0299 µM (active) | 0.0012 µM (active) | 0.00182 µM (active) | 0.00542 µM (active) | 0.00255 µM (active) | 0.00112 µM (active) | < 0.001 µM (active) | < 0.001 µM (active) | 0.0389 µM (active) | < 0.001 µM (active) | – | 0.00248 µM (active) | 0.00344 µM (active) | 0.00931 µM (active) | < 0.001 µM (active) | 0.00468 µM (active) | 0.00122 µM (active) | < 0.001 µM (active) | 0.366 | < 0.001 µM (active)

— ChEMBL document CHEMBL1201862, “PubChem BioAssay data set” (2004)
